# Source: patent US11179348B2, “Combination comprising pterostilbene for the treatment of cancer” (FUNDACIÓN UNIVERSIDAD CATÓLICA DE VALENCIA SAN VICENTE …, priority 2015, dated 2021)
# Columns and labels:
# [1] = system: BxPC-3 pancreatic cancer cells; assay: Nrf2- and redox state-related enzyme activities and metabolites in BxPC-3 cells growing in vivo; design: species or system human; conditions: BxPC-3, in vivo +Pter, day 35
# Experimental: To measure enzyme activity, isolated tumor cells were homogenized in 0.1 M phosphate buffer (pH 7.2) at 4° C. GCL and GSS activities were measured as described previously (Obrador, E. et al. Hepatology 35, 74-81 (2002)). GPX (selenium dependent) activity was measured as described by Flohé and Gunzler (Flohe, L. & Gunzler, W. A. Methods Enzymol 105, 114-121 (1984)) using H2O2 as a substrate. GSR activity was determined as described by Akerboom and Sies (Akerboom, T. P. et al, Bull Eur Physiopathol Respir 17 Suppl, 221-227 (1981)). GGT activity was measured as described previously (Obrador, E. et al. Hepatology 35, 74-81 (2002)). GST activity was measured using an assay kit from Sigma. TXNRD activity, defined by the concentration of sodium-lipoate (disulfide) reduced to dehydrolipoate (dithiol) per milligram protein, was measured as previously described (Javvadi, P. et al. Cancer Res 70, 1941-1950 (2010)). SOD activity was measured as described by Flohé and Otting (Flohe, L. & Otting, F. Methods Enzymol 105, 93-104 (1984).) using 2 mM cyanide in the assay medium to distinguish mangano-type enzyme (SOD2) from the cuprozinc type (SOD1). CAT activity was analyzed as described by Aebi (Aebi, H. Methods Enzymol 105, 121-126 (1984)). NOX activity was measured by chemiluminescence following the methodology of Wind et al. (Wind, S. et al. Comparative pharmacology of chemically distinct NADPH oxidase inhibitors. Br J Pharmacol 161, 885-898 (2010)). Protein concentration was determined with the Pierce BCA protein assay (Fisher Scientific, Waltham, Mass.). […]
# Quantitative measurement of H2O2 and flow cytometry determination of O2^⋅− generation were performed as previously described (Benlloch, M. et al. J Biol Chem 281, 69-79 (2006)).
# GSH, GSSG, NADP^+ and NADPH Determination.
# GSH and GSSG were determined, following procedures previously described (Obrador, E. et al. PLoS One 9, e96466 (2014)), by LC/MS using the same equipment described above for pterostilbene determination. Cell processing was performed according to published methodology, where rapid N-ethylmaleimide derivatization was used to prevent GSH auto-oxidation (Asensi, M. et al. Anal Biochem 217, 323-328 (1994)). NADP^+ and NADPH were quantitated using an assay kit from Sigma (St. Louis, Mo.).
# ASPC-1 cells = assay: Effect of Pter on ASPC-1 cell growth or viability in vitro; format: cell-based, human; conditions: 15 μM Pter×60 min every 24 h
# Experimental: FIG. 11. In vivo effect of Pter on human pancreatic cancer growth. […] For the doses of 20 and 40 mg Pter/kg only the point at the end of the treatment period is shown.
# Human A2058, MeWo and MelJuso melanoma cells, and mouse AtT-20 pituitary corticotroph tumor cells were from the American Type Culture Collection (ATCC). Human HEMa-LP epidermal melanocytes were from Life Technologies (Grand Island, N.Y.). Human MDA-MB-231 (triple negative: ER−, PR−, HER2−) and MCF-7 (ER+, PR+, HER2−) breast adenocarcinoma, A549 lung adenocarcinoma (NSCLC), HepG2 hepatocellular carcinoma, LNCaP (AR+) and PC-3 (AR−) prostate adenocarcinoma, SK-OV-3 epithelial ovarian carcinoma, and HT-29 and Caco-2 colorectal carcinoma cells were from the American Type Culture Collection. Cells were grown in Dulbecco's modified Eagle's medium (DMEM) (Invitrogen, San Diego, Calif.), pH 7.4, supplemented with 10% heat-inactivated FCS (Biochrom KG, Berlin, Germany), 100 units/ml penicillin and 100 μg/ml streptomycin. Cells were plated, at a density of 20,000 cells/cm2, and cultured at 37° C. in a humidified atmosphere with 5% CO2. […] Cell numbers were determined using a Coulter Counter (Coulter Electronic Inc., Miami, Fla.). […] Cellular viability was assessed as previously reported (Mena, S. et al. Clin Cancer Res 13, 2658-2666 (2007)), by measuring trypan blue exclusion and leakage of lactate dehydrogenase activity.
smiles,measurement,setting,value
"COc1cc(/C=C/c2ccc(O)cc2)cc(OC)c1 [Pter, trans-3,5-dimethoxy-4′-hydroxystilbene]",CAT,[1],1.0 ± 0.2 mU/10^6 cells
same,G6PDH,[1],264 ± 56 mU/10^6 cells
same,GCL,[1],36 ± 15 mU/10^6 cells
same,GGT,[1],19.7 ± 3.7 mU/10^6 cells
same,GPX,[1],9.2 ± 2.0 mU/10^6 cells
same,GSH,[1],3.7 ± 1.1 nmol/10^6 cells
same,GSH/GSSG,[1],12 ± 4
same,GSR,[1],2.3 ± 0.7 mU/10^6 cells
same,GSS,[1],4.0 ± 1.3 mU/10^6 cells
same,GSSG,[1],0.3 ± 0.1 nmol/10^6 cells
same,GST,[1],3.2 ± 1.0 mU/10^6 cells
same,H2O2,[1],1.3 ± 0.2 nmol/10^6 cells × min
same,IDH,[1],1.7 ± 0.5 U/10^6 cells
same,ME,[1],40 ± 7 mU/10^6 cells
same,NADPH,[1],0.03 ± 0.01 nmol/mg prot
same,NADPH/NADP^+,[1],0.6 ± 0.2
same,NADP^+,[1],0.05 ± 0.005 nmol/mg prot
same,NOX,[1],89 ± 25 R.L.U./10^6 cells
same,O2′−,[1],"5.9 ± 1.7 ΔFL1, a.u."
same,SOD1,[1],0.1 ± 0.05 U/10^6 cells
same,SOD2,[1],0.05 ± 0.02 U/10^6 cells
same,TXN,[1],0.2 ± 0.1 μg/10^6 cells
same,TXNRD,[1],0.8 ± 0.2 U/10^6 cells
same,cell growth or viability in vitro,ASPC-1 cells,did not affect
